# Experimental data reported in US7229762B2, “Proteomic screening for redox state dependent protein—protein interactions” (Duke University Medical Center, priority 2003, dated 2007).
# Legend:
# [1] = molecular target: T1, caspase-3/ASM interaction in HEK-293 cells (Homo sapiens, UniProt P42574); test: Caspase-3 immunoprecipitation, ASM blot, HEK-293 cells exposed to DETA-NO; type: cell-based; conditions: 200 μM DETA-NO
# T1 construct: endogenous in cells; host or cells: HEK-293
# T1 sequence (P42574 29-277): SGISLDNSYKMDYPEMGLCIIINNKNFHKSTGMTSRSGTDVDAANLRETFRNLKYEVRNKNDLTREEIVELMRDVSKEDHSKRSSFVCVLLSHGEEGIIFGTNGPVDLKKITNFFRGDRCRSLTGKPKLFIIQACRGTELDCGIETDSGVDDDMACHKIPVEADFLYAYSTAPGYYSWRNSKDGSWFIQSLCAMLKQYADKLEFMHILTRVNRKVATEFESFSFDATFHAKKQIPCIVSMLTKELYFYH
# T1 sequence (P17405 47-631 partner): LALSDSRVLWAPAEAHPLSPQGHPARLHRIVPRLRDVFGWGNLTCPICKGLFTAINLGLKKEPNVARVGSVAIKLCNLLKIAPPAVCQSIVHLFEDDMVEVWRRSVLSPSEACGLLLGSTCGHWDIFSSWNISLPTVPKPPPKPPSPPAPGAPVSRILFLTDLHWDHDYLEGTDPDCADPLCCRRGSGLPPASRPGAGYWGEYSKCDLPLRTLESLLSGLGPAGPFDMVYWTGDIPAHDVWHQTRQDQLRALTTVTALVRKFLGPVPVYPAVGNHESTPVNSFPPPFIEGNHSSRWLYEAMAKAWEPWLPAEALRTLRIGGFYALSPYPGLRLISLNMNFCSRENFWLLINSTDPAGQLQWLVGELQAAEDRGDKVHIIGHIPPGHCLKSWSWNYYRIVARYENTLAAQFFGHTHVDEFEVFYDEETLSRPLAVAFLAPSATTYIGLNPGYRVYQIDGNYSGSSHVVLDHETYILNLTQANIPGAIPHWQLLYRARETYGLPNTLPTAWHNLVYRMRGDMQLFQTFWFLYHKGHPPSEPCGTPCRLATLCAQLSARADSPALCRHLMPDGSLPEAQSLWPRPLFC
# Procedure: (§1) Thirty million cells were lysed by gentle homogenization in 1 ml IP buffer (10 mM NaPi, 100 mM NaCl, 1 mM EDTA, pH 7.9, with protease inhibitor cocktail). The supernatant obtained by centrifugation at 20,000 g for 10 min was used for immunoprecipitation. Caspase-3 immunoprecipitates (2.5 μg anti-caspase-3 monoclonal antibody, Transduction Laboratories) were washed, separated on 10% SDS-PAGE, and blotted with ASM antisera (Santa Cruz Biotechnology); 5% of the sample was blotted for caspase-3.
# Bulotta et al., 2001; De Nadal et al., 2000). […] To define further the NO requirement for this interaction, caspase-3 was immunoprecipitated from wild-type HEK cells and from HEK cells stably transfected with nNOS (Bredt et al., 1992), in the presence and absence of the NOS inhibitor L-NMMA. Little or no ASM was pulled down in precipitates from wild-type HEK cells, whereas ASM was readily detected in the precipitates from nNOS-expressing cells (FIG. 2). Moreover, ASM/caspase-3 interactions were observed not only between the 57 kD mature form of ASM, but also with the ASM proform (75 kD) and a smaller processed form (47 kD), which may be alternatively regulated (Ferlinz et al., 1994; Hurwitz et al., 1994).
# [2] = tested on: Yeast (Δyhb1); type: cell-based, Saccharomyces cerevisiae; conditions: growth monitored by absorbance at 600 nm
# Procedure: The YHB1 gene was deleted from yeast strain CG-1945 and the absence of NO consumption activity was verified (Liu et al., 2000). Yeast two-hybrid screening was then performed in the CG-1945-Ayhbl host. […]
# Yeast (Δyhb1) were transformed with Gal4 BD-caspase-3 plasmid (bait) and a cDNA library (Gal4 AD prey plasmids) derived from activated (NO generating) macrophages. […] DETA-NO at less than 300 μM generates NO without inhibiting yeast growth (monitored by absorbance at 600 nm). Steady state NO concentrations are maintained at ˜100 nM–1 μM range for several days as measured with an NO electrode (not shown).
# (§2) To assess the possibility of NO-dependent regulation of protein-protein interactions in a cellular context, a modified yeast two-hybrid screening methodology was developed. […] It was also necessary to establish a concentration range of DETA-NO over which physiological amounts of NO could be generated in these assays without impairing yeast growth (FIG. 1A) (100 μM DETA-NO produces steady state concentrations of ˜300 nM NO in yeast culture medium, as determined using an NO electrode)
# [3] = molecular target: T2, caspase-3 interaction with iNOS / ASM (Homo sapiens, UniProt P42574); test: Modified yeast two-hybrid, NO-dependent growth of iNOS/caspase-3 and ASM/caspase-3 clones; type: cell-based; conditions: 72 hrs, triple-deficient medium
# T2 construct: expressed in transfected cells; host or cells: Saccharomyces cerevisiae CG-1945 Δyhb1
# T2 sequence (P42574 1-277): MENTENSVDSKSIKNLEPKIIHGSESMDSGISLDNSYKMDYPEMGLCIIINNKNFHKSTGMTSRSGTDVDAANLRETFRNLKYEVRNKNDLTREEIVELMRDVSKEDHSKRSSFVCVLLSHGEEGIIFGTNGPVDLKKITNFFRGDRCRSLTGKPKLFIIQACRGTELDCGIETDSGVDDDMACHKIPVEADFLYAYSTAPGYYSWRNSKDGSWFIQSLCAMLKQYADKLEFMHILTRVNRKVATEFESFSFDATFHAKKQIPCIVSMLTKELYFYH
# Procedure: (§3) Yeast (Δyhb1) were transformed with Gal4 BD-caspase-3 plasmid (bait) and a cDNA library (Gal4 AD prey plasmids) derived from activated (NO generating) macrophages. Screening was performed as described in the methods below. DETA-NO at less than 300 μM generates NO without inhibiting yeast growth (monitored by absorbance at 600 nm). Steady state NO concentrations are maintained at ˜100 nM–1 μM range for several days as measured with an NO electrode (not shown).
# Auxotrophic selection was carried out on agar plates (15 cm in diameter) enriched in 50 mM phosphate buffer (pH 7.2; His-Trp-Leu (triple)-deficient buffered medium (TDBM)). […] Prey plasmids were isolated from positive yeast clones and then re-introduced into the bait strain to confirm bait-prey interactions. Method 2: After cells were seeded on 1.5% agar they were covered with 3% low melting point agar, which in turn was layered with culture medium. NO donors (e.g. DETA-NO; 300 μM final concentration) were added to the liquid layer every 24 hours. Colonies are grown for 4 days as described in ref 9. Method 3:
# Auxotrophic selection was carried out in TDBM. Transformation with the cDNA library was followed by overnight growth in medium deficient in tryptophan and leucine. Transformants were then grown for 3 days in His-deficient medium supplemented with DETA-NO (typically 200 μM final concentration). […]
# [4] = type: physicochemical
# Procedure: as §3
# as §2, with “developed. The first step was to delete the yeast flavohemoglobin gene (Liu et al., 2000), which consumes NO very efficiently and thus obfuscates NO signaling.” for “developed.”
# Purified caspase-3 was incubated in the presence or absence 20 μM DETA-NO for 60 min (30 nM steady state NO), followed by incubation with ASM at 37° C. for 2 hrs, and IP with caspase-3 antibody. […] S-nitrosylation of caspase-3 by NO was separately verified by photolysis-chemiluminesence (Mannick et al., 1999). The interaction of caspase-3 with ASM was measured as ASM activity in caspase-3 IP's (pH 5.0). Little or no ASM activity was present in IP's with caspase-3 antibody of either caspase-3 or ASM in isolation.
# To determine the relevant target(s) of NO, ASM/caspase-3 co-precipitations were carried out following NO treatment of each partner alone. Using an ASM activity assay, the amounts of ASM that could be precipitated with a procaspase-3 antibody was assessed from co-incubates (2 hours at 37° C.) of ASM (20 pmol) and caspase-3 in limiting amounts (2.5 pmol). […]
# [5] = molecular target: T3, eNOS/caspase-3 interaction in eNOS-expressing HEK cells (Bos taurus, UniProt P29473); test: Caspase-3 IP from eNOS-expressing HEK cells, amounts of eNOS; type: cell-based, Human; conditions: L-NMMA 3 mM with L-arginine 1 mM/Ca2+ 200 μM
# T3 construct: expressed in transfected cells; host or cells: HEK-293 expressing eNOS
# Procedure: HEK cell lysates from wild type (WT), nNOS- and eNOS-expressing cells were immunoprecipitated with caspase-3 monoclonal antibodies and blotted (IB) for nNOS, eNOS, and caspase-3, respectively. eNOS, nNOS and caspase-3 in whole cell lysates (Lysate) and in IPs from those lysates (7–20% SDS-PAGE) are shown. Data are representative of 5 similar experiments. eNOS and nNOS were not detectable in control IPs (not shown).
# eNOS-expressing HEK cells were treated with L-arginine (1 mM)/Ca^2+ (200 μM) (to activate NOS) in the presence or absence of L-NMMA (3 mM) (to inhibit NOS activation). Amounts of eNOS were quantified from scanned Western blots (7–20% SDS-PAGE) and normalized with respect to amounts of caspase in the IP (bar graph), (n=3).
# To probe further the physiological relevance of NO-dependent protein-protein interactions of NOS, the effects of NOS activity on binding of caspase-3 were assessed. […] Thus, NOS reversibly regulates its own binding to capase-3 through NO production.
# [6] = tested on: ASM/caspase-3 interaction in nNOS-expressing HEK cells; test: Caspase-3 IP from nNOS-expressing HEK cells, ASM isoforms; type: cell-based, Human; conditions: L-NMMA 3 mM
# Procedure: as §1
# Amounts of ASM isoforms (47, 57, 75 kDa) in caspase-3 immunoprecipitates (IP) from wild type (WT) vs. nNOS-expressing HEK cells were normalized with respect to the amounts of caspase-3 in the IPs (FIG. 2, bar graphs); IPs were performed in the presence and absence of the NOS inhibitor, LNMMA (3 mM). nNOS vs. WT (single asterisk, P<0.01) and nNOS vs. nNOS+LNMMA (double asterisk, p<0.05). A and B, n=7–14; C, n=3–5.
# Bulotta et al., 2001; De Nadal et al., 2000). […] To define further the NO requirement for this interaction, caspase-3 was immunoprecipitated from wild-type HEK cells and from HEK cells stably transfected with nNOS (Bredt et al., 1992), in the presence and absence of the NOS inhibitor L-NMMA. Little or no ASM was pulled down in precipitates from wild-type HEK cells, whereas ASM was readily detected in the precipitates from nNOS-expressing cells (FIG. 2). […]
# [7] = tested on: caspase-3 interactions with ASM, IRG, PGM, iNOS
# Procedure: For this purpose, protein-protein interactions were determined in a yeast two-hybrid system by the method described in Uetz, P., et al., Nature 403, 623–627 (2000) and Ito, T., et al., PNAS, 97, 1143–1147 (2000). The baits were all known proteins involved in apoptotic cascades. The preys were a library of macrophage genes (mRNA) expressed in response to cytokines that induce apoptosis. Mating pairs or transfectants were exposed to continuous nitric oxide presence at levels and flux rates mimicking those which are generated in macrophages, over 18 hours (the time course, over which apoptosis occurs in these cells). Room air was used in the determinations to mimic the cell condition at first and subsequently low pO2 (about 5 mm Hg) was used to improve specificity and increase yield. New partners and/or inhibition of partners that were otherwise present, were sought.
smiles,measurement,setting,value
"NCCN(CCN)/[N+]([O-])=N/O [DETA-NO, diethylenetriamine-NO]",co-precipitation of ASM with caspase-3,[1],immunoprecipitation of caspase-3 brought down the 57 kD active form of ASM
same,DETA-NO concentration that generates NO without inhibiting yeast growth,[2],less than 300 μM
same,concentration that optimally induced in yeast the interactions of caspase-3 with ASM and iNOS,[3],200 µM
same,half-life,[4],~18 h
same,steady state / maximum NO concentration,"[4]; 20 μM DETA-NO, 60 min",30 nM
same,steady state concentration of NO,"[4]; 100 μM DETA-NO, yeast culture medium, NO electrode",~300 nM
CNC(=N)NCCC[C@H](N)C(=O)O [L-NMMA],effect on eNOS interaction with caspase-3 after NOS activation,[5],almost completely reversed this effect
same,effect on interaction between ASM isoforms and caspase-3,[6],significantly reduced the interaction
OO [hydrogen peroxide],effect of presence of hydrogen peroxide on determined interactions,[7],did not produce or modify the majority of determined interactions
same,interaction dependent on hydrogen peroxide in the 4 clones,[7]; added repeatedly or generated continuously with glucose oxidase,none was found
